Test results as given in US5229381A, “Substituted azetidinones as anti-inflammatory and antidegenerative agents” (Merck & Co., Inc., priority 1991, dated 1993).

Target: T1, human polymorphonuclear leukocyte elastase (Homo sapiens, UniProt P08246)
T1 construct: Crude extract of human polymorphonuclear leukocytes (PMN) containing elastase activity; endogenous in cells; host or cells: human polymorphonuclear leukocytes (crude extract)
T1 sequence (P08246 30-247 limits assumed): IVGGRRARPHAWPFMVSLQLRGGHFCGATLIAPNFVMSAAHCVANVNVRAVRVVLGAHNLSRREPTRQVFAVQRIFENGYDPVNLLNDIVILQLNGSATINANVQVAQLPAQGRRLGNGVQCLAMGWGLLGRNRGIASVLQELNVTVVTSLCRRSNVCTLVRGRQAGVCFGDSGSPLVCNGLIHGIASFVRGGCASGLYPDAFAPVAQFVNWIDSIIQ
Assay: Inhibition of human polymorphonuclear leukocyte (granulocyte) elastase via hydrolysis of Boc-AAPAN or Boc-AAPVN
Format: biochemical
Settings: pH 7.5, Table VI, (per mole per second); read-out: kobs/I, second order rate constant of inactivation of the enzyme
Method: Enzyme Assays for the Inhibition of Human Polymorphonuclear Leukocyte Elastase Via Hydrolysis of N-t-Boc-alanyl-alanyl-prolylalanine-p-nitroanilide (Boc-AAPAN) or N-t-Boc-alanyl-prolylvaline-p-nitroanilide (Boc-AAPVN) Reagent:
0.05M TES (N-tris[hydroxymethyl]methyl-2-amino-ethanesulfonic acid) Buffer, pH 7.5.
0.2 mM Boc-AAPAN or Boc-AAPVN.
To prepare substrate, the solid was first dissolved in 10.0 ml DMSO. Buffer at pH 7.5 was then added to a final volume of 100 ml.
Crude extract of human polymorphonuclear leukocytes (PMN) containing elastase activity.
Inhibitors (azetidinones) to be tested dissolved in DMSO just before use.
To 1.0 ml of 0.2 mM Boc-AAPAN in a cuvette, 0.01-0.1 ml of DMSO with or without inhibitor was added. After mixing, a measurement was taken at 410 mμ to detect any spontaneous hydrolysis due to presence of test compound. 0.05 Milliliters of PMN extract was then added and the ΔOD/min at 410 mμ was measured and recorded. Beckman model 35 spectrophotometer was used.
Results were also expressed as Ki, the micromolar concentration of the inhibitor (μM) giving 50% of the control enzyme activity; or as ^k obs/I which is the second order rate constant in per mole per second for inactivation of the enzyme.
The elastase activity in the crude PMN extract may vary from one preparation to another. A control of each new batch is run, and the volume added in the assay procedure is adjusted according to activity.

SMILES | kinact/KI [M⁻¹ s⁻¹]
CCC[C@@H](NC(=O)N1C(=O)C(CC)(CC)[C@@H]1Oc1ccc(C(=O)O)cc1)c1ccc(C)cc1 [Table VI: 4-COOH; nPr; 4-Me, (4S)-3,3-diethyl-1-[(R)-α-n-propyl-(4-methyl)-benzylaminocarbonyl]-4-[(4-carboxy)phenoxy]azetidin-2-one] | 389000
CCC[C@@H](NC(=O)N1C(=O)C(CC)(CC)[C@@H]1Oc1ccc(CC(=O)O)cc1)c1ccc2occc2c1 [Table VI: 4-Ch2(OOH); nPr; 3,4(-CHCHO), (4S)-3,3-Diethyl-1-[[(R)-1-(benzofuran-5-yl)butylamino]carbonyl]-4-[4-(carboxymethyl)phenoxy]azetidin-2-one] | 848000
